According to the supplement of paper PMC11061612:

What was measured:
Test in all cases: combination Emax (second highest fraction inhibited in the dose matrix, 72 h); higher = more inhibition; extreme values may be limits of the assay
[1] = system: HCC1954 (Breast Carcinoma)
In short: (§1)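 Bliss excess equals the observed combination effect minus the expected value EA + EB − EA·EB, where EA and EB are the effects of each agent alone. Combination Emax is the second-highest inhibition within the matrix. Inhibition was scaled from CellTiter-Glo 2.0 luminescence, with 0 set by vehicle wells and 1 by blank wells, after 72 hours of two-drug dosing of cells plated in 1536-well plates.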

[2] = system: CCK-81 (Colorectal Carcinoma)
In short: as §1

[3] = system: KARPAS-422 (B-Cell Non-Hodgkin's Lymphoma)
In short: as §1

[4] = system: NCI-H1666 (Lung Adenocarcinoma)
In short: as §1

[5] = system: NCI-H64 (Small Cell Lung Carcinoma)
In short: as §1

[6] = system: TT (Thyroid Gland Carcinoma)
In short: as §1

[7] = system: COLO-320-HSR (Colorectal Carcinoma)
In short: as §1

[8] = system: ECC10 (Gastric Carcinoma)
In short: as §1

[9] = system: NCI-H2066 (Squamous Cell Lung Carcinoma)
In short: as §1

[10] = system: U-2-OS (Osteosarcoma)
In short: as §1

[11] = system: BICR22 (Oral Cavity Carcinoma)
In short: as §1

[12] = system: LN-405 (Glioblastoma)
In short: as §1

[13] = system: PANC-10-05 (Pancreatic Carcinoma)
In short: as §1

[14] = system: VCaP (Prostate Carcinoma)
In short: as §1

[15] = system: CAPAN-2 (Pancreatic Carcinoma)
In short: as §1

[16] = system: NY (Osteosarcoma)
In short: as §1

[17] = system: NCI-H1581 (Non-Small Cell Lung Carcinoma)
In short: as §1

[18] = system: ONS-76 (Other Solid Carcinomas)
In short: as §1

[19] = system: NCI-H2591 (Mesothelioma)
In short: as §1

[20] = system: FU97 (Gastric Carcinoma)
In short: as §1

CS(=O)(=O)CCNCc1ccc(-c2ccc3ncnc(Nc4ccc(OCc5cccc(F)c5)c(Cl)c4)c3c2)o1 [Lapatinib] + NC1(c2ccc(-c3nc4ccn5c(=O)[nH]nc5c4cc3-c3ccccc3)cc2)CCC1 [MK-2206] (first compound max 10 µM, 7x7, partner max 10 µM)
combination Emax [1]: 0.939 | combination Emax [2]: 0.985 | combination Emax [3]: 0.986 | combination Emax [4]: 0.898 | combination Emax [5]: 0.533 | combination Emax [6]: 0.625 | combination Emax [7]: 0.925 | combination Emax [8]: 0.972 | combination Emax [9]: 0.659 | combination Emax [10]: 0.257 | combination Emax [11]: 0.93 | combination Emax [12]: 0.789 | combination Emax [13]: 0.613 | combination Emax [14]: 0.478 | combination Emax [15]: 0.299 | combination Emax [16]: 0.246 | combination Emax [17]: 0.462 | combination Emax [18]: 0.783 | combination Emax [19]: 0.418 | combination Emax [20]: 0.795
